PMC11233931, “Remodeling tumor‐associated macrophage for anti‐cancer effects by rational design of irreversible inhibition of mitogen‐activated protein kinase‐activated protein kinase 2” (MedComm, 2024)

Key:
[1] = molecular target: T1, 380 human recombinant protein kinases (Homo sapiens, UniProt P43403); assay: Eurofins kinase selectivity profile against 380 other human recombinant kinases (Table S2); assay type: biochemical; conditions: ZAP-70(h), read-out: Inhibition rate (%)
T1 construct: purchased Eurofins (Celle Lévescault)
T1 sequence (P43403 1-619): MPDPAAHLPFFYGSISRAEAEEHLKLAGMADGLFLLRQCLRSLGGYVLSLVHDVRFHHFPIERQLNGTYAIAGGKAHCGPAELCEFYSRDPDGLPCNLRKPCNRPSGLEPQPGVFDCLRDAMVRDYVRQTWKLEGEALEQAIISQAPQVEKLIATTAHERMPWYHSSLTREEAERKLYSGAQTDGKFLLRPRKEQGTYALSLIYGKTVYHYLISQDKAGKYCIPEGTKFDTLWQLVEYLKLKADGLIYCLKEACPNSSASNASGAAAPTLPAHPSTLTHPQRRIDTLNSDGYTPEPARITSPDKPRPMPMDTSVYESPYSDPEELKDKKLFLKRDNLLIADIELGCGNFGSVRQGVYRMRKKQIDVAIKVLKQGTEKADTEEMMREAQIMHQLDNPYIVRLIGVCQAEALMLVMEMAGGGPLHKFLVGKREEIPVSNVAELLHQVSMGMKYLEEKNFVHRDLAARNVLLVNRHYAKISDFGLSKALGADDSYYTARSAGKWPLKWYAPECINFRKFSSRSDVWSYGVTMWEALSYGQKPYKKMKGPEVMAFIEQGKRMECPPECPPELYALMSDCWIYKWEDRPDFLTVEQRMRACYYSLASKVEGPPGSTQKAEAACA
Summary of the method: (§1)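 Selectivity panel of 380 human recombinant protein kinases, screened by Eurofins at a range of concentrations.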

[2] = molecular target: T2, 380 human recombinant protein kinases (Homo sapiens, UniProt Q8TD19); assay: as above; assay type: biochemical; conditions: NEK9(h), read-out: Inhibition rate
T2 construct: purchased Eurofins (Celle Lévescault)
T2 sequence (Q8TD19 1-979): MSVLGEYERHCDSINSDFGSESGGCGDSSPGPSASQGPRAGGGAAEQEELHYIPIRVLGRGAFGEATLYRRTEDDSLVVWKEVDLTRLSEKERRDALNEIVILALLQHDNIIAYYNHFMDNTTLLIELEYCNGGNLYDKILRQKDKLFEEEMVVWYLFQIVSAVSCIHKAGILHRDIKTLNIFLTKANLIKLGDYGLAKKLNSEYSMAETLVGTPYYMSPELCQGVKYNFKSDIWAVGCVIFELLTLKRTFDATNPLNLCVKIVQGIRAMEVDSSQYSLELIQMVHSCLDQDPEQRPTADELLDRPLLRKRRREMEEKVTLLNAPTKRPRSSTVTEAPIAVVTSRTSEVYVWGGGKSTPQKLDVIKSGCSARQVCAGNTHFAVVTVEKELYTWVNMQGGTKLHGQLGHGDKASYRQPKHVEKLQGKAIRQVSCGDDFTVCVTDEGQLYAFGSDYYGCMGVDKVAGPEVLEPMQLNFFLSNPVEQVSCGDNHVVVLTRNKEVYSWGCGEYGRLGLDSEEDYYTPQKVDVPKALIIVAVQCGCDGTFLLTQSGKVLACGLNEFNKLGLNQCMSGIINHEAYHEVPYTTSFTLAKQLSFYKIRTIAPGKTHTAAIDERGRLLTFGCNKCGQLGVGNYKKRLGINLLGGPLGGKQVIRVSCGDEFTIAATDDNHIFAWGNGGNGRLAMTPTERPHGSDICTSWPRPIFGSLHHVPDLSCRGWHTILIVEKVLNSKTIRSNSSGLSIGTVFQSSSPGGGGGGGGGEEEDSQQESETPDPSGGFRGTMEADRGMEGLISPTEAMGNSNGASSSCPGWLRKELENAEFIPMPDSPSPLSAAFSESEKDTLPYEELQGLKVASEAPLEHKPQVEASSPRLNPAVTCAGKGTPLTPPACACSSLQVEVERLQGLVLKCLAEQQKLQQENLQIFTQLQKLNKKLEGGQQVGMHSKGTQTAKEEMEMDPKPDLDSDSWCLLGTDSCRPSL
Summary of the method: as §1

`C=CC(=O)Nc1cc(-c2cc(-c3cc4c([nH]3)CCNC4=O)ccn2)ccc1OC(F)(F)F` [compound 11] showed an inhibition at 0.01 µM ([1]; 10 nM) of 8%, an inhibition at 0.1 µM ([1]; 100 nM) of 0% and an inhibition at 1 µM ([1]; 1000 nM) of -13%. The inhibition at 0.01 µM ([2]; 10 nM) was -2%, the inhibition at 0.1 µM ([2]; 100 nM) was -6% and the inhibition at 1 µM ([2]; 1000 nM) was 1%.
